Measurements reported in US5116841A, “Imidazoquinoxalines and their preparation and use” (Novo Nordisk A/S, priority 1989, dated 1992).

Test system: benzodiazepine receptors
Assay: in vivo displacement of 3H-flunitrazepam from brain benzodiazepine receptors in mice
Conditions: female NMR mice, i.p.; 3H-FNM i.v. 15 min after test substance; forebrain 20 min later; dose inhibiting 50% of specific 3H-FNM binding
Text: The pharmaceutical properties of the compounds of the invention can be illustrated by determining their capability for displacing radioactive labelled flunitrazepam from benzodiazepine receptors.
The displacement activity of the compounds of the invention may be found by determining the ED50 value. The ED50 value represents the dose (mg/kg) of a test substance which causes the specific binding of flunitrazepam to benzodiazepine receptors in a living brain to be reduced to 50% of the control value.
Such an in vivo test is carried out as follows:
Principle. Twenty minutes after a dose of ^3 H-flunitrazepam (^3 H-FNM) (200 μCi/kg, i.v.) the amount of specific ^3 H-FNM binding to brain benzodiazepine receptors has reached its maximal value.
Test procedure. Suspensions of test substances (2 mg/ml) are prepared in 5% Duphasol-X (TM Duphar, castor oil-ethylene oxide derivative for emulsifying and solubilizing oil and other water-insoluble substances) by sonification for 10 min using a Branson B15 microtip ultrasonifier (setting 7). Groups of three mice (female, NMR, 18-22 grams) are injected with the test substance at 100 mg/kg intraperitoneally. Fifteen minutes after test substance administration the mice are challenged with 4 μCi intravenously of ^3 H-FNM (70-90) Ci/mole) in 200 μl physiological saline. Twenty minutes after ^3 H-FNM administration mice are sacrificed by decapitation, the forebrains rapidly excised (within 30 sec) and homogenized in 12 ml of icecold 25 mM KH2 PO4, pH 7.1, using an Ultra-Turrax homogenizer fitted with an N 10 shaft. […] The amounts of radioactivity on the filters are determined by conventional scintillation counting. […]
Results. The ED50 value is determined from dose response curves. If only one dose of test substance is administered the ED50 value is calculated as follows, provided that the inhibition of specific binding is within the range of 25-75%: [formula] where Co is specific binding in controls and Cx is specific binding in mice treated with test substance.

SMILES | ED50
CC(C)n1c(=O)c2c(-c3cc(C4CC4)on3)ncn2c2ccccc21 [Compound 8, 3-(5-cyclopropyl-3-isoxazolyl)-4,5-dihydro-5-isopropyl-4-oxo-imidazo[1,5-a]quinoxaline] | 1,8 mg/kg
COc1cccc(Cn2c(=O)c3c(-c4cc(C)no4)ncn3c3ccccc32)c1 [Compound 27, 4,5-dihydro-5-(3-methoxybenzyl)-3-(3-methyl-5-isoxazolyl)-4-oxo-imidazo[1,5-a]quinoxaline] | 0,45 mg/kg
CC(C)=CCn1c(=O)c2c(-c3cc(C)no3)ncn2c2ccccc21 [Compound 29, 4,5-dihydro-5-(3,3-dimethylallyl)-3-(3-methyl-5-isoxazolyl)-4-oxo-imidazo[1,5-a]quinoxaline] | 0,37 mg/kg
